Measured values reported in patent EP4596574A1, “GLP-1/GCG/GIP TRIPLE-RECEPTOR AGONIST AND USE THEREOF” (Sunshine Lake Pharma Co., Ltd., priority 2022, dated 2024).
Marks after values point to notes of the source that are not given here.

Tests used:
GIPR = molecular target: T1, GIPR (Homo sapiens, UniProt P48546); experiment: In vitro cell activity, cAMP production in HEK293 cells expressing GIPR; format: cell-based
T1 construct: expressed in transfected cells; host or cells: HEK293 (HEK293-GIPR)
T1 sequence (P48546 22-466): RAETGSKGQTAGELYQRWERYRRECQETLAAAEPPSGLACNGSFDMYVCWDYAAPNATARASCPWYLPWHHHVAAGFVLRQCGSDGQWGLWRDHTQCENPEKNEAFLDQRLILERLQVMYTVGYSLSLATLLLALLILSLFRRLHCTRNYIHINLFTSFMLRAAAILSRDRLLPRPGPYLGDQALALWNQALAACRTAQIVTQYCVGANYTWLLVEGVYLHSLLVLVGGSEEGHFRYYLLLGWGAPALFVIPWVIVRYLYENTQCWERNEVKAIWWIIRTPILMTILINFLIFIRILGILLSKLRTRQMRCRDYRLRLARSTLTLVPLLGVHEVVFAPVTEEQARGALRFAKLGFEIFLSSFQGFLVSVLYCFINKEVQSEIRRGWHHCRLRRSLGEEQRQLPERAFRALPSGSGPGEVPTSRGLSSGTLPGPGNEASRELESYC
In short: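 HEK293 cells expressing human GIPR, thawed and diluted to 4×10^5 cells/mL, are stimulated with test compound. cAMP is measured by HTRF competition between cAMP-d2 and anti-cAMP cryptate. EC50 comes from a four-parameter nonlinear fit of signal ratio against concentration.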

GCGR = molecular target: T2, GCGR (Homo sapiens, UniProt P47871); experiment: In vitro cell activity, cAMP production in HEK293 cells expressing GCGR; format: cell-based
T2 construct: expressed in transfected cells; host or cells: HEK293 (HEK293-GCGR)
In short: (§1)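 cAMP output read as 665/620 nm HTRF ratio after adding cAMP-d2 plus anti-cAMP cryptate and incubating 1 h at room temperature in the dark or overnight at 4 °C. Cells: HEK293 expressing human GLP-1R or GCGR, plated from a 4×10^5 cells/mL suspension. Four-parameter fit gives EC50.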

GLP-1R = molecular target: T3, GLP-1R (Homo sapiens, UniProt P43220); experiment: In vitro cell activity, cAMP production in HEK293 cells expressing GLP-1R; format: cell-based
T3 construct: expressed in transfected cells; host or cells: HEK293 (HEK293-GLP-1R)
In short: as §1

[1] = Glucose tolerance assessment in normal C57BL/6 mice (Example 4); format: in vivo; details: 3 nmol/kg s.c. single dose, 24 h after administration; for Blood glucose level (mM) 15 min: 15 min after 2 g/kg glucose i.p.; for Blood glucose level (mM) 30 min: 30 min after 2 g/kg glucose i.p.; for Blood glucose level (mM) 60 min: 60 min after 2 g/kg glucose i.p.; for Blood glucose level (mM) 90 min: 90 min after 2 g/kg glucose i.p.; for Blood glucose level (mM) 0 min: basal before 2 g/kg glucose i.p.; for AUC0-90 min: blood glucose AUC, 2 g/kg glucose i.p.
Method: (§2) Twelve hours after the single administration, the animals were fasted for 12 hours and had free access to water. Blood was collected from the tail vein to determine the basal blood glucose level of each group of animals, and then 2 g/kg glucose solution was injected intraperitoneally. Blood glucose was tested at 15, 30, 60, and 90 min after glucose administration. The blood glucose concentration-time curve was drawn according to the blood glucose values measured at different time points, and the AUC0~90min of each dose group was calculated as shown in Table 4 and Figure 1. Table 4: Effects of single administration of HEC-PT74, HEC-PT75, HEC-PT77, HEC-PT78, HEC-PT80, and HEC-PT82 on glucose tolerance in normal C57 mice 24 h after administration

[2] = In vivo efficacy evaluation in db/db mouse model (blood glucose); set-up: species or system db/db mice
Method: Blood glucose was tested before each administration.

[3] = Glucose tolerance assessment in normal C57BL/6 mice (Example 5); format: in vivo; details: 3 nmol/kg s.c. single dose, 24 h after administration
Method: as §2, with “Table 5” for “Table 4”, “Figure 2.” for “Figure 1.”, “Table 5:” for “Table 4:”, “of HEC-PT86, HEC-PT96, HEC-PT112, HEC-PT113, HEC-PT114,” for “of HEC-PT74, HEC-PT75, HEC-PT77, HEC-PT78, HEC-PT80,”, “and HEC-PT119” for “and HEC-PT82”

T3 sequence (P43220 24-463, species assumed): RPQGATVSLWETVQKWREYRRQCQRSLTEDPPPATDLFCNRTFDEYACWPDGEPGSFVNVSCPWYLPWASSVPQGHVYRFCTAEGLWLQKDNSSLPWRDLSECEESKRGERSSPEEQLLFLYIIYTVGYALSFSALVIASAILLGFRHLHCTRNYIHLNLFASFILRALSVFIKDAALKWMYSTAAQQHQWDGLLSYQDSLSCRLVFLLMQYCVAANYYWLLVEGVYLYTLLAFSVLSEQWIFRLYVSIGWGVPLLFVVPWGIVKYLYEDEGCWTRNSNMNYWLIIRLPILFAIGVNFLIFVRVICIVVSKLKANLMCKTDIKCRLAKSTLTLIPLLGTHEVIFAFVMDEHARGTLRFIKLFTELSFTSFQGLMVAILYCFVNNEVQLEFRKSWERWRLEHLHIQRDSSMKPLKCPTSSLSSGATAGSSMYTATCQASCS
T2 sequence (P47871 26-477, species assumed): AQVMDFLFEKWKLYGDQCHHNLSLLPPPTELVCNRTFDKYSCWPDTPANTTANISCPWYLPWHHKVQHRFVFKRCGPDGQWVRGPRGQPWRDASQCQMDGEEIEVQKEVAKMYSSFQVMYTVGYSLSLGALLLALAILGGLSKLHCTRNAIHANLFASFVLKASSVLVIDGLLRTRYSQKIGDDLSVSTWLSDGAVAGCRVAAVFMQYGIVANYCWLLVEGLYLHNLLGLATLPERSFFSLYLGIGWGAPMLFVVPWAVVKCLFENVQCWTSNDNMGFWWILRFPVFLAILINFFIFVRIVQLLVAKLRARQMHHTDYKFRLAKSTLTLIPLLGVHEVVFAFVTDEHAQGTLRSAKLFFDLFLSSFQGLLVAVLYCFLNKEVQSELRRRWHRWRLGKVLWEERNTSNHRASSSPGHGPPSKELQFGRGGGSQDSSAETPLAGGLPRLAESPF

CC[C@H](C)[C@H](NC(=O)[C@H](Cc1ccccc1)NC(=O)[C@H](CCC(=O)O)NC(=O)[C@H](CCC(N)=O)NC(=O)[C@H](CCC(N)=O)NC(=O)[C@H](C)NC(=O)[C@H](CCCCNC(=O)COCCOCCNC(=O)CC[C@H](NC(=O)CCCCCCCCCCCCCCCCCCC(=O)O)C(=O)O)NC(=O)[C@H](CCC(=O)O)NC(=O)[C@H](CC(=O)O)NC(=O)[C@H](CC(C)C)NC(=O)[C@H](CC(C)C)NC(=O)[C@@H](NC(=O)[C@H](CO)NC(=O)[C@H](Cc1ccc(O)cc1)NC(=O)[C@H](CC(=O)O)NC(=O)[C@H](CO)NC(=O)[C@@H](NC(=O)[C@](C)(Cc1ccccc1F)NC(=O)[C@@H](NC(=O)CNC(=O)[C@H](CCC(N)=O)NC(=O)C(C)(C)NC(=O)[C@@H](N)Cc1ccc(O)cc1)[C@@H](C)O)[C@@H](C)O)[C@@H](C)CC)C(=O)N[C@@H](CCC(=O)O)C(=O)N[C@@H](Cc1c[nH]c2ccccc12)C(=O)N[C@@H](CC(C)C)C(=O)N[C@@H](CC(C)C)C(=O)N[C@@H](CCC(=O)O)C(=O)NCC(=O)NCC(=O)N1CCC[C@H]1C(=O)N[C@@H](CO)C(=O)N[C@@H](CO)C(=O)NCC(=O)N[C@@H](C)C(=O)N1CCC[C@H]1C(=O)N1CCC[C@H]1C(=O)N1CCC[C@H]1C(=O)N[C@@H](CO)C(=O)O [HEC-PT78] showed an EC50 (GIPR) of 0.215 nM, an EC50 (GCGR) of 4.5 nM and an EC50 (GLP-1R) of 0.532 nM. The “Blood glucose level (mM) 15 min” value [1] was 15.8 ± 2.6 mM, the “Blood glucose level (mM) 30 min” value [1] was 12.0 ± 2.5 mM and the “Blood glucose level (mM) 60 min” value [1] was 9.2 ± 1.5 mM. For the same compound, the “Blood glucose level (mM) 90 min” value [1] was 7.3 ± 0.7 mM, the “Blood glucose level (mM) 0 min” value [1] was 4.6 ± 0.6 mM and the AUC0-90 min [1] was 927.1±135.2^a.
CC[C@H](C)[C@H](NC(=O)[C@H](Cc1ccccc1)NC(=O)[C@H](CCC(=O)O)NC(=O)[C@H](CCCNC(=N)N)NC(=O)[C@H](CCC(N)=O)NC(=O)[C@H](C)NC(=O)[C@H](CCCCNC(=O)COCCOCCNC(=O)CC[C@H](NC(=O)CCCCCCCCCCCCCCCCC(=O)O)C(=O)O)NC(=O)[C@H](CCC(=O)O)NC(=O)[C@H](CC(=O)O)NC(=O)[C@H](CC(C)C)NC(=O)[C@H](CC(C)C)NC(=O)[C@@H](NC(=O)[C@H](CO)NC(=O)[C@H](Cc1ccc(O)cc1)NC(=O)[C@H](CC(=O)O)NC(=O)[C@H](CO)NC(=O)[C@@H](NC(=O)[C@](C)(Cc1ccccc1F)NC(=O)[C@@H](NC(=O)CNC(=O)[C@H](Cc1c[nH]cn1)NC(=O)C(C)(C)NC(=O)[C@@H](N)Cc1ccc(O)cc1)[C@@H](C)O)[C@@H](C)O)[C@@H](C)CC)C(=O)N[C@@H](CCC(=O)O)C(=O)N[C@@H](Cc1c[nH]c2ccccc12)C(=O)N[C@@H](CC(C)C)C(=O)N[C@@H](CC(C)C)C(=O)N[C@@H](C)C(=O)NCC(=O)NCC(=O)N1CCC[C@H]1C(=O)N[C@@H](CO)C(=O)N[C@@H](CO)C(=O)NCC(=O)N[C@@H](C)C(=O)N1CCC[C@H]1C(=O)N1CCC[C@H]1C(=O)N1CCC[C@H]1C(=O)N[C@@H](CO)C(=O)O [HEC-PT74] gave an EC50 (GIPR) of 0.0043 nM, an EC50 (GCGR) of 0.319 nM and an EC50 (GLP-1R) of 0.104 nM. The “Blood glucose level (mM) 15 min” value [1] was 14.0 ± 4.3 mM, the “Blood glucose level (mM) 30 min” value [1] was 10.0 ± 3.1 mM and the “Blood glucose level (mM) 60 min” value [1] was 8.4 ± 2.5 mM. The “Blood glucose level (mM) 90 min” value [1] was 7.1 ± 2.3 mM, the “Blood glucose level (mM) 0 min” value [1] was 4.6 ± 1.0 mM and the AUC0-90 min [1] was 827.3±234.6^a. The “blood glucose after administration” value ([2]; db/db mice, 10 nmol/kg) was “significantly reduce blood glucose”, the “Random blood glucose (mM) D0” value ([2]; db/db mice, 10 nmol/kg s.c. once every three days, D0 (before first dose)) was 25.5 ± 4.7 mM and the “Random blood glucose (mM) D3” value ([2]; db/db mice, 10 nmol/kg s.c. once every three days, D3) was 13.5 ± 4.4 mM. For the same compound, the “Random blood glucose (mM) D4” value ([2]; db/db mice, 10 nmol/kg s.c. once every three days, D4) was 20.0 ± 2.9 mM, the “Random blood glucose (mM) D5” value ([2]; db/db mice, 10 nmol/kg s.c. once every three days, D5) was 22.1 ± 3.9 mM and the “Random blood glucose (mM) D6” value ([2]; db/db mice, 10 nmol/kg s.c. once every three days, D6) was 21.1 ± 3.0 mM. The “Random blood glucose (mM) D7” value ([2]; db/db mice, 10 nmol/kg s.c. once every three days, D7) was 22.7 ± 2.9 mM, the “Random blood glucose (mM) D10” value ([2]; db/db mice, 10 nmol/kg s.c. once every three days, D10) was 12.1 ± 2.1 mM and the “Random blood glucose (mM) D13” value ([2]; db/db mice, 10 nmol/kg s.c. once every three days, D13) was 12.5 ± 2.7 mM. The “Random blood glucose (mM) D16” value ([2]; db/db mice, 10 nmol/kg s.c. once every three days, D16) was 12.1 ± 2.9 mM, the “Random blood glucose (mM) D19” value ([2]; db/db mice, 10 nmol/kg s.c. once every three days, D19) was 16.0 ± 2.3 mM and the “Random blood glucose (mM) D22” value ([2]; db/db mice, 10 nmol/kg s.c. once every three days, D22) was 13.9 ± 3.2 mM. For the same compound, the “Random blood glucose (mM) D25” value ([2]; db/db mice, 10 nmol/kg s.c. once every three days, D25) was 16.3±4.2^a mM, the “Random blood glucose (mM) 6 h” value ([2]; db/db mice, 10 nmol/kg s.c., 6 h) was 16.7 ± 5.1 mM and the “Random blood glucose (mM) 24 h” value ([2]; db/db mice, 10 nmol/kg s.c., 24 h) was 7.3 ± 1.6 mM. The “Random blood glucose (mM) 48 h” value ([2]; db/db mice, 10 nmol/kg s.c., 48 h) was 9.2 ± 2.9 mM, the “time at which blood glucose levels reached the lowest level” value ([2]; db/db mice, 10 nmol/kg, after administration) was “about 24 hours” and the “blood glucose lowering after long-term administration compared with LY3298176” value ([2]; db/db mice, long-term repeated administration) was “not inferior to the positive control LY3298176”. The “blood glucose reducing effect after administration compared with LY3298176” value ([2]; db/db mice, same dose 10 nmol/kg) was “slightly better than the positive control LY3298176” and the “blood glucose level after long-term administration” value ([2]; type II diabetes model db/db mice) was “significantly improve the blood glucose level”.
CC[C@H](C)[C@H](NC(=O)[C@H](CCCCN)NC(=O)[C@H](CC(=O)O)NC(=O)[C@H](CCCCNC(=O)COCCOCCNC(=O)CC[C@H](NC(=O)CCCCCCCCCCCCCCCCC(=O)O)C(=O)O)NC(=O)[C@H](CC(C)C)NC(=O)[C@@H](NC(=O)[C@H](CO)NC(=O)[C@H](Cc1ccc(O)cc1)NC(=O)[C@H](CC(=O)O)NC(=O)[C@H](CO)NC(=O)[C@@H](NC(=O)[C@](C)(Cc1ccccc1F)NC(=O)[C@@H](NC(=O)CNC(=O)[C@H](CCC(N)=O)NC(=O)C(C)(C)NC(=O)[C@@H](N)Cc1ccc(O)cc1)[C@@H](C)O)[C@@H](C)O)[C@@H](C)CC)C(=O)N[C@@H](C)C(=O)N[C@@H](CCC(N)=O)C(=O)NC(C)(C)C(=O)N[C@@H](C)C(=O)N[C@@H](Cc1ccccc1)C(=O)N[C@H](C(=O)N[C@@H](CCC(=O)O)C(=O)N[C@@H](Cc1ccc(O)cc1)C(=O)N[C@@H](CC(C)C)C(=O)N[C@@H](CC(C)C)C(=O)N[C@@H](CCC(=O)O)C(=O)NCC(=O)NCC(=O)N1CCC[C@H]1C(=O)N[C@@H](CO)C(=O)N[C@@H](CO)C(=O)NCC(=O)N[C@@H](C)C(=O)N1CCC[C@H]1C(=O)N1CCC[C@H]1C(=O)N1CCC[C@H]1C(=O)N[C@@H](CO)C(N)=O)[C@@H](C)CC [HEC-PT114] showed an EC50 (GIPR) of 0.0567 nM, an EC50 (GCGR) of 0.138 nM and an EC50 (GLP-1R) of 0.12 nM. For the same compound, the “Blood glucose level (mM) 15 min” value ([3]; 15 min after 2 g/kg glucose i.p.) was 13.5 ± 1.0 mM, the “Blood glucose level (mM) 30 min” value ([3]; 30 min after 2 g/kg glucose i.p.) was 9.8 ± 0.8 mM and the “Blood glucose level (mM) 60 min” value ([3]; 60 min after 2 g/kg glucose i.p.) was 7.9 ± 0.8 mM. For the same compound, the “Blood glucose level (mM) 90 min” value ([3]; 90 min after 2 g/kg glucose i.p.) was 6.3 ± 0.8 mM, the “Blood glucose level (mM) 0 min” value ([3]; basal before 2 g/kg glucose i.p.) was 4.9 ± 1.0 mM and the AUC0-90 min ([3]; blood glucose AUC, 2 g/kg glucose i.p.) was 791.0±55.3^a.
